Holding throughout (format): cell-based
Assay [1] addresses LPA1 receptor (native, systemic sclerosis dermal fibroblasts) (Homo sapiens, UniProt Q92633). Description: FLIPR calcium flux, primary SSc dermal fibroblasts. As to conditions: agonist; 0.3% fatty acid-free human serum albumin; Gi/Go coupled. On the technique in general: Calcium flux is commonly read through the fluorescence of an indicator in the cells.
The target of a further assay is LPA2 receptor (Homo sapiens, UniProt Q9HBW0). As to the kind of experiment: FLIPR calcium flux, CHO cells.
LPA2 receptor, sequence (Q9HBW0 whole entry): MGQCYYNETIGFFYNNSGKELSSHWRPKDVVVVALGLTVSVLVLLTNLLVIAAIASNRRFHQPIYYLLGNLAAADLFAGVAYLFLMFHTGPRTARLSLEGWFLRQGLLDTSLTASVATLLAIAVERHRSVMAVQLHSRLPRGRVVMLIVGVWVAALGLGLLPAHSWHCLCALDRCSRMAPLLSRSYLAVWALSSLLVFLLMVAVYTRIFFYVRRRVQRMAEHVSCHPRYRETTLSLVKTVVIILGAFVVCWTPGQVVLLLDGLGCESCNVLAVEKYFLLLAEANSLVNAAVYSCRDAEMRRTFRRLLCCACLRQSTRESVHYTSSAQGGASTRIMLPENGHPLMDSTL
The target in the next assay is LPA5 receptor (Homo sapiens, UniProt Q9H1C0). As to the kind of experiment: FLIPR calcium flux, CHO cells.
LPA5 receptor, sequence (Q9H1C0 whole entry): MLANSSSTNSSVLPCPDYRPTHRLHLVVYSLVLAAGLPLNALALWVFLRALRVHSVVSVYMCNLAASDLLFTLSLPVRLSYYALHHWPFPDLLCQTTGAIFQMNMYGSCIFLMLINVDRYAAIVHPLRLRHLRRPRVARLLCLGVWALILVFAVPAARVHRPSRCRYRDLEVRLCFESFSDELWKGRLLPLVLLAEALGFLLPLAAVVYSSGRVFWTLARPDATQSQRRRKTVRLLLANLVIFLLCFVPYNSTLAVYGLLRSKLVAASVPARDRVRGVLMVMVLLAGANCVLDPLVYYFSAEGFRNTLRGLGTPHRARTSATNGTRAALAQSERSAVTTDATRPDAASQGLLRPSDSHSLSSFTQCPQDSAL
In the next assay the target is T1, LPA3 receptor (Homo sapiens, UniProt Q9UBY5).
T1 sequence (Q9UBY5 1-353): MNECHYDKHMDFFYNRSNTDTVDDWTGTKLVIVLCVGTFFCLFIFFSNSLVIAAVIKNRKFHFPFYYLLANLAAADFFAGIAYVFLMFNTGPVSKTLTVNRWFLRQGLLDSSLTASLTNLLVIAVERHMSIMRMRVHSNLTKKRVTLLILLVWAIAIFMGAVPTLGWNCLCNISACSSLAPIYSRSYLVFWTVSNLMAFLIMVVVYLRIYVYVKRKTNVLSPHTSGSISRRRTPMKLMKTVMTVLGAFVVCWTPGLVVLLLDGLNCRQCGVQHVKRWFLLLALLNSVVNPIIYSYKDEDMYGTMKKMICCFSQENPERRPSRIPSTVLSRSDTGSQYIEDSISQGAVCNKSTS
As to the kind of experiment: FLIPR calcium flux, CHO cells.

The results in this text go back to paper PMC7443477 (British Journal of Pharmacology, 2020).

LPA1 receptor (native, systemic sclerosis dermal fibroblasts), sequence (Q92633 whole entry): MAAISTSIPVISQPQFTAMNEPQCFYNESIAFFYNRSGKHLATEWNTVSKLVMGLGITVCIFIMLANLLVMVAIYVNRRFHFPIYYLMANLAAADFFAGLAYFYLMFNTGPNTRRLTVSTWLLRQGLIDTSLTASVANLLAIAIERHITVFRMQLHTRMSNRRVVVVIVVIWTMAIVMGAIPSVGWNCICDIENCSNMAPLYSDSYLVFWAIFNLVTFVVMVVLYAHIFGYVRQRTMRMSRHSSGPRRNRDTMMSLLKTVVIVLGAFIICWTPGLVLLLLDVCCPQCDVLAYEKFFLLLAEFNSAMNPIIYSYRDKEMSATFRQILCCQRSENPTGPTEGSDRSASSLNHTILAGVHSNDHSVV

As usually defined, the EC50 is the concentration at which the effect is half-maximal. Regarding `CCCCCCCC/C=C\CCCCCCCC(=O)OC[C@@H](O)COP(=O)(O)O` [LPA 18:1], in assay [1], the EC50 worked out at 0.15 ± 0.05 µM.

By IC50 is commonly meant the concentration needed to halve the response being measured. With `COc1ccc(C(=O)NC2(C(=O)O)Cc3ccccc3C2)cc1OCCc1cccc(C)c1` [SAR100842, 2‐(4‐methoxy‐3‐(2‐m‐tolyl‐ethoxy)‐benzoylamino)‐indan‐2‐carboxylic acid], the IC50 on LPA2 receptor, at LPA5 receptor and on LPA3 receptor was greater than 10 µM each time.
